# Test results as given in patent publication US11155539B2, “4-pyridinylmethyl-morpholine derivatives and the use thereof as medicament” (Boehringer Ingelheim International GmbH, priority 2018, dated 2021).
# Assays:
# Nav1.6 [1] = biological target: T1, Nav1.6 (Homo sapiens, UniProt Q9UQD0); conditions: reported in WO2015/130905; cited from earlier work
# Nav1.6 [2] = biological target: T1, Nav1.6; experiment: Nav 1.6 inhibition, IonWorks Quattro electrophysiology; format: cell-based
# Experimental: Determination of Nav 1.6.Inhibition
# IonWorks Quattro electrophysiological platform
# The compounds were prepared in DMSO at 300× the final assay concentrations of 1 and 5 μM.
# The 300×DMSO stock solutions were transferred into assay plates where 2 μl per well of each 300× stock solution were placed. All assay plates were stored at −80° C. until the day of assay.
# On the day of the assay, the appropriate assay plate was thawed at room temperature, centrifuged, and 198 μl of external recording solution was added and mixed thoroughly. This provided a 1:100 dilution. A further 1:3 dilution occurred upon addition to the cells in the IonWorks Quattro electrophysiological platform, giving a 1:300 dilution in total. On each assay plate, at least 8 wells were reserved for vehicle control (0.3% DMSO) and at least 8 wells for each positive control specific to the cell line tested. The positive controls were tested at a maximal blocking and an approximate IC50 concentration. As positive control Lidocaine at concentrations of 30 and 1000 μM was used.
# The solutions for recording Nav1.6 currents were as follows:
# Amphotericin B was used to obtain electrical access to the cell interior at a final concentration of 200 μg/ml in internal recording solution.
# State-dependent inhibition: Sodium channels when held at depolarized potential or long test pulse, the channels open and inactivate and then stay inactivated until the membrane potential is stepped back to hyperpolarized potentials, when the inactivated channels recover from inactivation into closed state.
# Cells were held at −120 mV. In order to completely inactivate the sodium channels (pulse 1), the cells were pulsed to +0 mV for 2500 ms and stepped back to −120 mV for 10 ms (to completely recover from inactivation, however channels that had drugs bound to them will not recover from inactivation) before stepping to +0 mV for 20 ms (pulse 2).
# Both the positive and vehicle control data associated with each cell line assayed are shown below as an example. The mean is shown for each positive and negative control as solid symbol with the total number of individual well replicates given next to the solid symbol. In addition, the individual data of each well are shown on the graph as open symbols so that the variation about the mean value can be readily assessed.
# Shown below are the assay controls for the Nav1.6 IonWorks Quattro assay.
# Tables 3 and 4 show the normalized percentage inhibition of Nav1.6 channel. […] (see also the figure Assay Control Results above).
# NMDA NR1/NR2B receptor = biological target: T2, NMDA NR1/NR2B receptor (Homo sapiens, UniProt Q13224); experiment: In vitro NMDA NR1/NR2B cell assay (FLIPR, intracellular calcium induced by glycine/glutamate); format: cell-based; conditions: see Table 2
# T2 construct: host or cells: HEK293, tetracycline-inducible expression
# T2 sequence (Q13224 27-1484, other chains not shown): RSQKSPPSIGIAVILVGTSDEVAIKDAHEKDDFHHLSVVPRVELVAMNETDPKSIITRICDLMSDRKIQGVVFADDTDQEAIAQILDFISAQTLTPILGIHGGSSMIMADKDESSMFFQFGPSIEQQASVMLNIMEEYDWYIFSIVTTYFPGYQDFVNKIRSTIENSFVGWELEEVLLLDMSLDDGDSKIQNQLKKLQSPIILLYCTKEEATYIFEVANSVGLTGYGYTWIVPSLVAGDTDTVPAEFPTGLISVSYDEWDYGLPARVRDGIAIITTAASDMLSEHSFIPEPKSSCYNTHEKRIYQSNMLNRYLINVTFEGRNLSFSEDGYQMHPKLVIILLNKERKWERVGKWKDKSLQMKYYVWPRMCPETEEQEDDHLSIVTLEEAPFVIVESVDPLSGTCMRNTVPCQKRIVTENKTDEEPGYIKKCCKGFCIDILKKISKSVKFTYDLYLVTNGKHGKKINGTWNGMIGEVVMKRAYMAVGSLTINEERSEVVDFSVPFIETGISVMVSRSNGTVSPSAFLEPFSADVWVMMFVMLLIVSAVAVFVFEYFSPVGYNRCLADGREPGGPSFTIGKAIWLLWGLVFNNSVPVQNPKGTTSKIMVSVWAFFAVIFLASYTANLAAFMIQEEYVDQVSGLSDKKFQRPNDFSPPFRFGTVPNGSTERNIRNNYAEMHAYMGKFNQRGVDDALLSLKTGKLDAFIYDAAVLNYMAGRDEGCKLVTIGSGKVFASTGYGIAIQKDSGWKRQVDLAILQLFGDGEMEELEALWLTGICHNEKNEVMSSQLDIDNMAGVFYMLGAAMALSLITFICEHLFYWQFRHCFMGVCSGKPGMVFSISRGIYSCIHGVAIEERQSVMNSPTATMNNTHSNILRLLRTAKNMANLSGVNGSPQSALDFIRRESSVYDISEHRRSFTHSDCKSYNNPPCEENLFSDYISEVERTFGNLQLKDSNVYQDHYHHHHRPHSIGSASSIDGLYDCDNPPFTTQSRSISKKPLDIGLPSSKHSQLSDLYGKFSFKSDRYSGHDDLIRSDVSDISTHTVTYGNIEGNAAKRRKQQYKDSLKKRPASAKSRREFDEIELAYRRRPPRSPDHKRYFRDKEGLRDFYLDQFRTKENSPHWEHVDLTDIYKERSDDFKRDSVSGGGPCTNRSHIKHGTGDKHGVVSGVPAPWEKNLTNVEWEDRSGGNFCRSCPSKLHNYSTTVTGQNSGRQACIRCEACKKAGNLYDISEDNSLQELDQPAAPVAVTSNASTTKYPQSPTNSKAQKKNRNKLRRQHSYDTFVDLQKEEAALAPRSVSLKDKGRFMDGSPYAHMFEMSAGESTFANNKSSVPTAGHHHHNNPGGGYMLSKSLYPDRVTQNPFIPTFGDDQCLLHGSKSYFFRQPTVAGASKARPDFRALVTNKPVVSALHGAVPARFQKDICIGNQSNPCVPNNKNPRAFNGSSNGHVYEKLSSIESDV
# Experimental: A human HEK293 cell line with tetracyclin-inducible expression of NMDA NR1/NR2B receptor was used as a test system for compound efficacy and potency. The cell line was purchased from ChanTest, Catalog #CT6121. Compound activity was determined by measuring the effect of compounds on intracellular calcium concentration induced by glycine/glutamate agonism in a FLIPRtetra system (Molecular Devices).
# The cells were obtained as frozen cells in cryo-vials and stored until use at −150° C. Cells were grown in culture medium (DMEM/F12, 10% FBS, 5 μg/mL Blasticidin, 150 μg/mL Zeozin, 500 μg/mL Geneticin). […] For sub-culturing the cells were detached from flasks by Versene. For the assay, cells were detached, washed twice with induction medium (DMEM/F12 without glutamine, 10% FBS, 2 μg/mL Tetracycline, 2 mM Ketamine) and seeded to 384 well pure coat amine plates (Becton Dickinson, 50000 cells per well in 50 μl) 48 h prior to assay in induction medium.
# The test compounds were dissolved in 100% DMSO at a concentration of 10 mM and in a first step diluted in DMSO to a concentration of 5 mM, followed by serial dilution steps in 100% DMSO. Dilution factor and number of dilution steps may vary according to needs. Typically 8 different concentrations by 1:5 dilutions were prepared in duplicate, further intermediate dilutions (1:37.5) of the substances were carried out with aqueous assay buffer (137 mM NaCl, 4 mM KCl, 1.8 mM CaCl2, 10 mM HEPES, 10 mM Glucose, pH 7.4) resulting in a compound concentration 3 times above the final test concentration and DMSO at 2.7% resulting in 0.9% final DMSO concentration in the assay.
# At the assay day cells were washed 3× with assay buffer (as described above), 10 μL buffer remained in the wells after washing. 10 μL Ca kit loading buffer (AAT Bioquest; prepared from the kit containing the following components: Component A: Fluo-8 NW dissolved in 200 μL DMSO and 20 μl of this solution are mixed with 10 ml buffer prepared out of component B and C, Component B: 10× Pluronic® F127 Plus diluted 1:10 in component C, Component C: HHBS (Hanks with 20 mM Hepes) was added to the cells and the plates were incubated with lid for 60 minutes at room temperature. 20 μl assay buffer containing 60 μM glycine (20 μM final) and 3 μM glutamate (1 μM final) was added to column 1-23, column 24 got assay buffer without glycine/glutamate to serve as negative unstimulated control. Fluorescence (indicating the calcium influx as a result of the NR1/NR2B ion channel activation) was read on the FLIPRtetra device for 60 seconds to monitor the glutamate induced effects. After 2 minutes 20 μL of compound dilution prepared as described above or controls (row 1-22) in assay buffer were carefully added to the wells. […] The average of 2 measurements at 5 minutes and […] 10 seconds after compound addition is calculated and further used for IC50 calculations. Each assay microtiter compound dilution plate contained wells (in column 23 or 24) with DMSO controls instead of compound as controls for glycine/glutamate induced fluorescence (high controls) and wells with 1 μM of a reference NR2B NAM as low controls (Compound 22; reference: Layton, Mark E et al, ACS Chemical Neuroscience 2011, 2(7), 352-362).
# The output file of the reader contains the well number and measured average fluorescence units. For data evaluation and calculation, the measurement of the low control was set as 0% control and the measurement of the high control was set as 100% control. The IC50 values were calculated using the standard 4 parameter logistic regression formula. Calculation: [y=(a−d)/(1+(x/c)^b)+d], a=low value, d=high value; x=conc M; c=IC50 M; b=slope.
# T1 sequence (Q9UQD0 whole entry): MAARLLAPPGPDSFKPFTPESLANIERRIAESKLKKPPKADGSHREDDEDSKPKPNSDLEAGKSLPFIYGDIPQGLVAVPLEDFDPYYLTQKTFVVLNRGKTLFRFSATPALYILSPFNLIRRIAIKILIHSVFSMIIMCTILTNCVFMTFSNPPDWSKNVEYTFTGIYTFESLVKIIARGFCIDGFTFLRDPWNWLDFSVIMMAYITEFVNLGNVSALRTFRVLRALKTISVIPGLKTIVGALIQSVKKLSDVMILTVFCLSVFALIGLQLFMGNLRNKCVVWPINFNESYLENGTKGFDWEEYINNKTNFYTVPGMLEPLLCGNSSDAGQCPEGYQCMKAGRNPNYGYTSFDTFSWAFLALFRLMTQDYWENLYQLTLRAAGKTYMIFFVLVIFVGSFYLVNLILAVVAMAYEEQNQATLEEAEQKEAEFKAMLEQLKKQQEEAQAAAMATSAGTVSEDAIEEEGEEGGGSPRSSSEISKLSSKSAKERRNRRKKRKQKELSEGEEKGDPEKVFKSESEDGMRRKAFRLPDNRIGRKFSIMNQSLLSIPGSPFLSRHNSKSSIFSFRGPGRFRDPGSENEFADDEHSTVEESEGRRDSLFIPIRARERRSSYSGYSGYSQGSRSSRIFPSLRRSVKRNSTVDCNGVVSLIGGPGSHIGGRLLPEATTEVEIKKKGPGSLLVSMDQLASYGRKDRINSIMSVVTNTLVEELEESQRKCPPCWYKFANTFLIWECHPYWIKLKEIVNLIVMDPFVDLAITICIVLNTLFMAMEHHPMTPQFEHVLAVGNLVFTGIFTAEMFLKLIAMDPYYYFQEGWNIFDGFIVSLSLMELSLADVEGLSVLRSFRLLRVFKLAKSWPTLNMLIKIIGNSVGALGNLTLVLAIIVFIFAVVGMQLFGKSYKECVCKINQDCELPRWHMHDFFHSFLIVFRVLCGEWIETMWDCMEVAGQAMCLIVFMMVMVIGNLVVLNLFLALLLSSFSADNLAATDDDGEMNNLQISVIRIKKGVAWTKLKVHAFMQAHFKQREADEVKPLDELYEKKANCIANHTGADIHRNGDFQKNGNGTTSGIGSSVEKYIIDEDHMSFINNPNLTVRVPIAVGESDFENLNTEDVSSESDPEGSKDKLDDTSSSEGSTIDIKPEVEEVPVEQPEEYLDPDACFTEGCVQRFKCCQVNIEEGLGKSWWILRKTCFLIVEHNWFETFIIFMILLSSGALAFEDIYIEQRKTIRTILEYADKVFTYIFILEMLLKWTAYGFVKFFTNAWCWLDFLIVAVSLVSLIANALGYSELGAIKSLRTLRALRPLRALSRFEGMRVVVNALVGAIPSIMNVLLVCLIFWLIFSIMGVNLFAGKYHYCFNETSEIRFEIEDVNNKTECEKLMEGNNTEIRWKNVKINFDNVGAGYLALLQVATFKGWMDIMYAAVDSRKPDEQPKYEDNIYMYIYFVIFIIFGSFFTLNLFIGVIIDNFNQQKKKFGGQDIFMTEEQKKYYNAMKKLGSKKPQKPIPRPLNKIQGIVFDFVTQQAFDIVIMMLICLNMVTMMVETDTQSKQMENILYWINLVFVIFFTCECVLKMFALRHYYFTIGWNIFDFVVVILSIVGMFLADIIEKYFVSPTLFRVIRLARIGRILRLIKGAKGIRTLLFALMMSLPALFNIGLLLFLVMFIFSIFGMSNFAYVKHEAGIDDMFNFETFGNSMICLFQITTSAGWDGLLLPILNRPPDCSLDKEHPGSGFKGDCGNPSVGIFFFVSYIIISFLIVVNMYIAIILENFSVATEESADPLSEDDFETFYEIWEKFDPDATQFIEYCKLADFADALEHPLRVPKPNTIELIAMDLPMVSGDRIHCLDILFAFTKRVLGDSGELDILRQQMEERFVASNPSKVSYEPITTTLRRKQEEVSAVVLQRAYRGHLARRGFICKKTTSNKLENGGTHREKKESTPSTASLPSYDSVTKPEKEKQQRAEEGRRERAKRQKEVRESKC
structure (smiles),measurement,setting,value
"O=C(C1CN(Cc2cccc(Oc3ccccc3)c2)CCO1)N1CCOCC1 (stereo not shown) [Example 106 of WO2015/130905, reference compound]",Nav 1.6 blockage,Nav1.6 [1],> 5 µM
same,significant inhibition of the Nav 1.6 channel (in words),Nav1.6 [2]; at 5 μM,not showing any significant inhibition
same,significant inhibition of the Nav 1.6 channel (in words),Nav1.6 [2]; at 1 and 5 μM,do not show any significant inhibition
same,activity on the NR1-NR2B ion channel (in words),NMDA NR1/NR2B receptor,do not show any activity
